Measured values reported in patent US9617256B2 (priority 2007, dated 2017).
Converted amounts (≈) assume the structure as drawn.

Legend:
[1] = system: ASAU001 (laboratory strain of S. aureus, ATCC29213); assay: MIC broth microdilution, ASAU001; assay type: cell-based; details: Staphylococcus aureus, ATCC29213, read-out: MIC ASAU001
Outline: (§1)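 CLSI-guided microdilution: bacteria passaged overnight at 35° C. on Mueller-Hinton agar, tested in cation-adjusted broth at a final 3×10^5–7×10^5 CFU/mL across 2-fold drug dilutions, read after 18-24 h at 35° C.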

[2] = system: APAE006 in the presence of 8 micrograms per milliliter of polymyxin B nonapeptide; assay type: cell-based, P. aeruginosa; details: in the presence of 8 micrograms per milliliter of polymyxin B nonapeptide
Outline: (§2)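 Minimum inhibitory concentrations followed CLSI broth microdilution guidelines: cation-adjusted Mueller-Hinton broth, 2-fold serial drug dilutions, final inoculum 3×10^5–7×10^5 CFU/mL, ambient air at 35° C. for 18-24 hours. Quality-control strains and levofloxacin monitored performance.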

APAE001 (ATCC27853) = assay: MIC broth microdilution, APAE001; assay type: cell-based, P. aeruginosa; details: Pseudomonas aeruginosa, ATCC27853, read-out: MIC APAE001, APAE001 is ATCC27853
Outline: as §1

AECO001 (ATCC25922) = assay: MIC broth microdilution, AECO001; assay type: cell-based, E. coli; details: Escherichia coli, ATCC25922, read-out: MIC AECO001
Outline: as §1

[3] = system: AABA1060 (clinical isolate of Acinetobacter baumannii); assay: MIC broth microdilution, AABA1060; assay type: cell-based; details: Acinetobacter baumannii, read-out: MIC AABA1060
Outline: as §1

[4] = system: AECO063 (ATCC25922 bearing an acrAB mutation); assay: microbe, parasite or virus in culture; assay type: cell-based, E. coli; details: Escherichia coli, ATCC25922, read-out: MIC AECO063
Outline: as §1

AECO001 HSA AGP = assay: MIC broth microdilution, AECO001 HSA AGP; assay type: cell-based, E. coli; details: Escherichia coli
Outline: as §1

[5] = system: APAE006 (strain of P. aeruginosa in which all efflux pumps are inactivated); assay: microbe, parasite or virus in culture; assay type: cell-based; details: Pseudomonas aeruginosa, read-out: MIC APAE006, P. aeruginosa, all efflux pumps inactivated
Outline: as §2

| SMILES | MIC [1] [µg/mL] | MIC APAE006 + PMBN [2] | MIC (APAE001 (ATCC27853)) [µg/mL] | MIC (AECO001 (ATCC25922)) [µg/mL] | MIC [3] [µg/mL] | MIC [4] [µg/mL] | MIC (AECO001 HSA AGP) [µg/mL] | MIC [5] [µg/mL] |
| --- | --- | --- | --- | --- | --- | --- | --- | --- |
| CO[C@H](C)[C@H](NC(=O)c1ccc(C#C/C=C/c2ccc(CN3CCOCC3)cc2)cc1)C(=O)NO [Example 97-1, N-((1S,2R)-1-Hydroxycarbamoyl-2-methoxy-propyl)-4-[(E)-4-(4-morpholin-4-ylmethyl-phenyl)-but-3-en-1-ynyl]-benzamide] | 16 to 64 (≈ 33.5 to 134 µM) | A (MIC's of 2.0 μg/mL or less = A) | 2 to 16 (≈ 4.19 to 33.5 µM) | < 2 | 2 to 16 (≈ 4.19 to 33.5 µM) | < 2 | < 2 | < 2 |
| NC[C@H](NC(=O)c1ccc(C#C/C=C/c2ccc(CN3CCOCC3)cc2)cc1)C(=O)NO [Example 98-1, N—((S)-2-amino-1-hydroxycarbamoyl-ethyl)-4-[(E)-4-(4-morpholin-4-ylmethyl-phenyl)-but-3-en-1-ynyl]-benzamide] | 16 to 64 (≈ 35.7 to 143 µM) | A (MIC's of 2.0 μg/mL or less = A) | < 2 | < 2 | 16 to 64 (≈ 35.7 to 143 µM) | < 2 | < 2 | < 2 |
| CN(C)CC(=O)NC[C@H](NC(=O)c1ccc(C#C/C=C/c2ccc(CN3CCOCC3)cc2)cc1)C(=O)NO [Example 98-2, N—[(S)-2-(2-dimethylamino-acetylamino)-1-hydroxycarbamoyl-ethyl]-4-[(E)-4-(4-morpholin-4-ylmethyl-phenyl)-but-3-en-1-ynyl]-benzamide] | 16 to 64 (≈ 30 to 120 µM) | A (MIC's of 2.0 μg/mL or less = A) | 2 to 16 (≈ 3.75 to 30 µM) | < 2 | 16 to 64 (≈ 30 to 120 µM) | < 2 | 2 to 16 (≈ 3.75 to 30 µM) | < 2 |
| CC(=O)NC[C@H](NC(=O)c1ccc(C#C/C=C/c2ccc(CN3CCOCC3)cc2)cc1)C(=O)NO [Example 98-3, N—((S)-2-acetylamino-1-hydroxycarbamoyl-ethyl)-4-[(E)-4-(4-morpholin-4-ylmethyl-phenyl)-but-3-en-1-ynyl]-benzamide] | > 64 | A (MIC's of 2.0 μg/mL or less = A) | 2 to 16 (≈ 4.08 to 32.6 µM) | < 2 | 16 to 64 (≈ 32.6 to 130 µM) | < 2 | < 2 | < 2 |
| CNC[C@H](NC(=O)c1ccc(C#C/C=C/c2ccc(CN3CCOCC3)cc2)cc1)C(=O)NO [Example 99-1] | 16 to 64 (≈ 34.6 to 138 µM) | A (MIC's of 2.0 μg/mL or less = A) | 2 to 16 (≈ 4.32 to 34.6 µM) | < 2 | 16 to 64 (≈ 34.6 to 138 µM) | < 2 | 2 to 16 (≈ 4.32 to 34.6 µM) | < 2 |
| O=C(CNC1CC1)NC[C@H](NC(=O)c1ccc(C#C/C=C/c2ccc(CN3CCOCC3)cc2)cc1)C(=O)NO [Example 100-1, N—[(S)-2-(2-Cyclopropylamino-acetylamino)-1-hydroxycarbamoyl-ethyl]-4-[(E)-4-(4-morpholin-4-ylmethyl-phenyl)-but-3-en-1-ynyl]-benzamide] | 16 to 64 (≈ 29.3 to 117 µM) | A (MIC's of 2.0 μg/mL or less = A) | 2 to 16 (≈ 3.67 to 29.3 µM) | < 2 | 16 to 64 (≈ 29.3 to 117 µM) | < 2 | 2 to 16 (≈ 3.67 to 29.3 µM) | < 2 |
| C[C@@H](O)[C@H](NC(=O)c1ccc(C#C/C=C/c2ccc(CO)cc2)cc1)C(=O)NO [Example 101-1, N-((1S,2R)-2-Hydroxy-1-hydroxycarbamoyl-propyl)-4-[(E)-4-(4-hydroxymethyl-phenyl)-but-3-en-1-ynyl]-benzamide] | 16 to 64 (≈ 40.6 to 162 µM) | A (MIC's of 2.0 μg/mL or less = A) | 2 to 16 (≈ 5.07 to 40.6 µM) | < 2 | 16 to 64 (≈ 40.6 to 162 µM) | < 2 | 2 to 16 (≈ 5.07 to 40.6 µM) | < 2 |
| NC[C@H](NC(=O)c1ccc(C#C/C=C/c2ccc(CO)cc2)cc1)C(=O)NO [Example 101-2] | 16 to 64 (≈ 42.2 to 169 µM) | A (MIC's of 2.0 μg/mL or less = A) | 2 to 16 (≈ 5.27 to 42.2 µM) | < 2 | 16 to 64 (≈ 42.2 to 169 µM) | < 2 | 16 to 64 (≈ 42.2 to 169 µM) | < 2 |
| C[C@@H](N)[C@H](NC(=O)c1ccc(C#C/C=C/c2ccc(CO)cc2)cc1)C(=O)NO [Example 101-3] | 16 to 64 (≈ 40.7 to 163 µM) | A (MIC's of 2.0 μg/mL or less = A) | < 2 | < 2 | 2 to 16 (≈ 5.08 to 40.7 µM) | < 2 | 2 to 16 (≈ 5.08 to 40.7 µM) | < 2 |
| C[C@H](O)[C@H](NC(=O)c1ccc(C#C/C=C/c2ccc(CO)cc2)cc1)C(=O)NO [Example 101-4] | 16 to 64 (≈ 40.6 to 162 µM) | A (MIC's of 2.0 μg/mL or less = A) | 2 to 16 (≈ 5.07 to 40.6 µM) | < 2 | 16 to 64 (≈ 40.6 to 162 µM) | < 2 | 2 to 16 (≈ 5.07 to 40.6 µM) | < 2 |
| CC(C)(O)[C@H](NC(=O)c1ccc(C#C/C=C/c2ccc(CO)cc2)cc1)C(=O)NO [Example 101-5] | 16 to 64 (≈ 39.2 to 157 µM) | A (MIC's of 2.0 μg/mL or less = A) | < 2 | < 2 | < 2 | < 2 | 2 to 16 (≈ 4.9 to 39.2 µM) | < 2 |
| C[C@@H](O)[C@H](NC(=O)c1ccc(C#C/C=C/c2ccc(CNC3CC3)cc2)cc1)C(=O)NO [Example 102-1, 4-[(E)-4-(4-Cyclopropylaminomethyl-phenyl)-but-3-en-1-ynyl]-N-((1S,2R)-2-hydroxy-1-hydroxycarbamoyl-propyl)-benzamide] | 16 to 64 (≈ 36.9 to 148 µM) | A (MIC's of 2.0 μg/mL or less = A) | 2 to 16 (≈ 4.61 to 36.9 µM) | < 2 | 16 to 64 (≈ 36.9 to 148 µM) | < 2 | 2 to 16 (≈ 4.61 to 36.9 µM) | < 2 |
| C[C@@H](N)[C@H](NC(=O)c1ccc(C#C/C=C/c2ccc(CNC3CC3)cc2)cc1)C(=O)NO [Example 102-2] | 16 to 64 (≈ 37 to 148 µM) | A (MIC's of 2.0 μg/mL or less = A) | 2 to 16 (≈ 4.62 to 37 µM) | < 2 | 2 to 16 (≈ 4.62 to 37 µM) | < 2 | 2 to 16 (≈ 4.62 to 37 µM) | < 2 |
| NC[C@H](NC(=O)c1ccc(C#C/C=C/c2ccc(CNC3CC3)cc2)cc1)C(=O)NO [Example 102-3] | 16 to 64 (≈ 38.2 to 153 µM) | A (MIC's of 2.0 μg/mL or less = A) | < 2 | < 2 | 16 to 64 (≈ 38.2 to 153 µM) | < 2 | 2 to 16 (≈ 4.78 to 38.2 µM) | < 2 |
| C[C@H](O)[C@H](NC(=O)c1ccc(C#C/C=C/c2ccc(CNC3CC3)cc2)cc1)C(=O)NO [Example 102-4] | > 64 | A (MIC's of 2.0 μg/mL or less = A) | 2 to 16 (≈ 4.61 to 36.9 µM) | < 2 | 16 to 64 (≈ 36.9 to 148 µM) | < 2 | 2 to 16 (≈ 4.61 to 36.9 µM) | < 2 |
| CC(C)(O)[C@H](NC(=O)c1ccc(C#C/C=C/c2ccc(CNC3CC3)cc2)cc1)C(=O)NO [Example 102-5] | > 64 | A (MIC's of 2.0 μg/mL or less = A) | < 2 | < 2 | 2 to 16 (≈ 4.47 to 35.8 µM) | < 2 | < 2 | < 2 |
| O=C(CNC1CC1)NC[C@H](NC(=O)c1ccc(C#C/C=C/c2ccc(CO)cc2)cc1)C(=O)NO [Example 103-1, N—[(S)-2-(2-cyclopropylamino-acetylamino)-1-hydroxycarbamoyl-ethyl]-4-[(E)-4-(4-hydroxymethyl-phenyl)-but-3-en-1-ynyl]-benzamide] | > 64 | A (MIC's of 2.0 μg/mL or less = A) | 2 to 16 (≈ 4.2 to 33.6 µM) | < 2 | > 64 | < 2 | 2 to 16 (≈ 4.2 to 33.6 µM) | < 2 |
| C[C@@H](O)[C@H](NC(=O)c1ccc(C#C/C=C/c2ccccc2)cc1)C(=O)NO [Example 104-1, N-((1S,2R)-2-Hydroxy-1-hydroxycarbamoyl-propyl)-4-((E)-4-phenyl-but-3-en-1-ynyl)-benzamide] | 16 to 64 (≈ 43.9 to 176 µM) | A (MIC's of 2.0 μg/mL or less = A) | 2 to 16 (≈ 5.49 to 43.9 µM) | < 2 | 2 to 16 (≈ 5.49 to 43.9 µM) | < 2 | 2 to 16 (≈ 5.49 to 43.9 µM) | < 2 |
| NC[C@H](NC(=O)c1ccc(C#C/C=C/c2ccccc2)cc1)C(=O)NO [Example 104-2] | 16 to 64 (≈ 45.8 to 183 µM) | A (MIC's of 2.0 μg/mL or less = A) | 2 to 16 (≈ 5.72 to 45.8 µM) | < 2 | 16 to 64 (≈ 45.8 to 183 µM) | < 2 | 2 to 16 (≈ 5.72 to 45.8 µM) | < 2 |
| CC(C)(O)[C@H](NC(=O)c1ccc(C#C/C=C/c2ccccc2)cc1)C(=O)NO [Example 104-3] | 16 to 64 (≈ 42.3 to 169 µM) | A (MIC's of 2.0 μg/mL or less = A) | < 2 | < 2 | < 2 | < 2 | 2 to 16 (≈ 5.29 to 42.3 µM) | < 2 |
| C[C@@H](N)[C@H](NC(=O)c1ccc(C#C/C=C/c2ccccc2)cc1)C(=O)NO [Example 104-4] | 16 to 64 (≈ 44 to 176 µM) | A (MIC's of 2.0 μg/mL or less = A) | < 2 | < 2 | 2 to 16 (≈ 5.5 to 44 µM) | < 2 | 2 to 16 (≈ 5.5 to 44 µM) | < 2 |
